Common to all, as to type: cell-based
Test [1] concerns human dermal fibroblasts from LHON patients. The experiment in a line: Rescue of BSO-stressed fibroblasts from LHON patients (Example C). To be noted: Fibroblast, LHON fibroblasts GM03858, screen as Example A, read-out: protection against LHON, EC50. How it is done:
The compounds were tested for their ability to rescue human dermal fibroblasts from LHON patients from oxidative stress.

Test [2] relates to Human dermal fibroblasts from Friedreich's Ataxia patients. The test can be described thus: Rescue of BSO-stressed FRDA fibroblasts (Example A). The note with it: FRDA fibroblasts GM04078, 1 mM BSO. The method, then:
Test samples, 4 reference compounds (idebenone, decylubiquinone, Trolox and α-tocopherol acetate), and solvent controls were tested for their ability to rescue FRDA fibroblasts stressed by addition of L-buthionine (S,R)-sulfoximine (BSO), as described in Jauslin et al., Hum. Mol. Genet. […] Mol. Genet. […] This specific BSO-mediated cell death can be prevented by administration of antioxidants or molecules involved in the antioxidant pathway, such as α-tocopherol, selenium, or small molecule glutathione peroxidase mimetics. However, antioxidants differ in their potency, i.e. the concentration at which they are able to rescue BSO-stressed FRDA fibroblasts.
Fetal Calf Serum was obtained from PAA Laboratories. Basic fibroblast growth factor and epidermal growth factor were purchased from PeproTech. Penicillin-streptomycin-glutamine mix, L-buthionine (S,R)-sulfoximine, (+)-α-tocopherol acetate, decylubiquinone, and insulin from bovine pancreas were purchased from Sigma. Trolox (6-Hydroxy-2,5,7,8-tetramethylchroman-2-carboxylic acid) was obtained from Fluka. Idebenone was obtained from Chemo Iberica. Calcein AM was purchased from Molecular Probes. Cell culture medium was made by combining 125 ml M199 EBS, 50 ml Fetal Calf Serum, 100 U/ml penicillin, 100 μg/ml streptomycin, 2 mM glutamine, 10 μg/ml insulin, 10 ng/ml EGF, and 10 ng/ml bFGF; MEM EBS was added to make the volume up to 500 ml. […] During the course of the experiments, this solution was stored at +4° C. The cells were obtained from the Coriell Cell Repositories (Camden, NJ; repository number GM04078) and grown in 10 cm tissue culture plates. Every third day, they were split at a 1:3 ratio.
The test samples were supplied in 1.5 ml glass vials. […] Once dissolved, they were stored at −20° C. Reference antioxidants (idebenone, decylubiquinone, α-tocopherol acetate and trolox) were dissolved in DMSO.
Test samples were screened according to the following protocol: A culture with FRDA fibroblasts was started from a 1 ml vial with approximately 500,000 cells stored in liquid nitrogen. […] Once confluent, fibroblasts were harvested. […] The remaining cells were distributed in 10 cm cell culture plates (500,000 cells/plate) for propagation. The plates were incubated overnight at 37° C. in a atmosphere with 95% humidity and 5% CO2 to allow attachment of the cells to the culture plate.
MTP medium (243 μl) was added to a well of the microtiter plate. […] Serial dilutions from the master solution were made. The period between the single dilution steps was kept as short as possible (generally less than 1 second).
Plates were kept overnight in the cell culture incubator. The next day, 10 μl of a 10 mM BSO solution were added to the wells, resulting in a 1 mM final BSO concentration. Forty-eight hours later, three plates were examined under a phase-contrast microscope to verify that the cells in the 0% control (wells E1-H1) were clearly dead. The medium from all plates was discarded, and the remaining liquid was removed by gently tapping the plate inversed onto a paper towel.
The plates were incubated for 50-70 minutes at room temperature. After that time the PBS was discarded, the plate gently tapped on a paper towel and fluorescence (excitation/emission wavelengths of 485 nm and 525 nm, respectively) was read on a Gemini fluorescence reader. Data was imported into Microsoft Excel (EXCEL is a registered trademark of Microsoft Corporation for a spreadsheet program) and used to calculate the EC50 concentration for each compound.
The compounds were tested three times, i.e., the experiment was performed three times, the passage number of the cells increasing by one with every repetition.
The viability of non-BSO treated fibroblasts was set as 100%, and the viability of the BSO- and compound-treated cells was calculated as relative to this value.

Test [3] relates to human dermal fibroblasts from Huntington's patients. The experiment in a line: Rescue of BSO-stressed fibroblasts from Huntington's patients (Example B). The note with it: Fibroblast, Huntington's fibroblasts GM 04281, screen as Example A, read-out: protection against Hungtington's, EC50. How it is done:
The compounds were tested for their ability to rescue human dermal fibroblasts from Huntington's patients from oxidative stress.

[4] abbreviates: read-out: protection against FRDA, EC50.
[5] abbreviates: Calcein AM viability, average of three values, read-out: EC50 Average.
[6] abbreviates: Calcein AM viability, experiment 1 of 3, read-out: EC50 Value 1.
The mark [7] stands for this setting: Calcein AM viability, experiment 2 of 3, read-out: EC50 Value 2.
The mark [8] stands for this setting: Calcein AM viability, experiment 3 of 3, read-out: EC50 Value 3.

Where two headings read alike, the source gives them in different places.

Turning to `CC1=C(C)C(=O)C(CCC(C)(O)C(=O)N2CCN(C(=O)c3ccccc3)CC2)=C(C)C1=O` (centres unmarked) [2-(4-(4-benzoylpiperazin-1-yl)-3-hydroxy-3-methyl-4-oxobutyl)-3,5,6-trimethylcyclohexa-2,5-diene-1,4-dione], the EC50 in test [1] is less than 100 nM.

In the case of `CC1=C(C)C(=O)C(CCC(C)(O)C(=O)N2CCCCCC2)=C(C)C1=O` (centres unmarked) [2-(4-(azepan-1-yl)-3-hydroxy-3-methyl-4-oxobutyl)-3,5,6-trimethylcyclohexa-2,5-diene-1,4-dione], in test [1], the half-maximal effective concentration (EC50) was less than 100 nM.

As to `CC1=C(C)C(=O)C(CCC(C)(O)C(=O)NCCCS(C)(=O)=O)=C(C)C1=O` (centres unmarked) [2-hydroxy-2-methyl-N-(3-(methylsulfonyl)propyl)-4-(2,4,5-trimethyl-3,6-dioxocyclohexa-1,4-dienyl)butanamide], the concentration giving a half-maximal response (EC50) in test [1] was less than 100 nM.

On to `CC1=C(C)C(=O)C(CCC(C)(O)C(=O)NCc2ccncc2)=C(C)C1=O` (centres unmarked) [2-hydroxy-2-methyl-N-(pyridin-4-ylmethyl)-4-(2,4,5-trimethyl-3,6-dioxocyclohexa-1,4-dienyl)butanamide], for which the EC50 in test [1] was less than 100 nM.

As to `COc1ccc(NC(=O)C(C)(O)CCC2=C(C)C(=O)C(C)=C(C)C2=O)cc1` (centres unmarked) [2-hydroxy-N-(4-methoxyphenyl)-2-methyl-4-(2,4,5-trimethyl-3,6-dioxocyclohexa-1,4-dienyl)butanamide], the EC50 in test [2] (setting [4]) and in test [3] was less than 100 nM throughout.

For the compound `CC1=C(C)C(=O)C(CC[C@@](C)(O)C(=O)N2CCC(O)CC2)=C(C)C1=O` [(R)-2-(3-hydroxy-4-(4-hydroxypiperidin-1-yl)-3-methyl-4-oxobutyl)-3,5,6-trimethylcyclohexa-2,5-diene-1,4-dione], the EC50 in test [1] and in test [2] (setting [4]) was less than 100 nM each time.

Consider `CC(=O)N1CCN(C(=O)[C@](C)(O)CCC2=C(C)C(=O)C(C)=C(C)C2=O)CC1` [(R)-2-(4-(4-acetylpiperazin-1-yl)-3-hydroxy-3-methyl-4-oxobutyl)-3,5,6-trimethylcyclohexa-2,5-diene-1,4-dione], for which the EC50 in test [1], in test [2] (setting [4]) and in test [3] was less than 100 nM each time.

Regarding `CC1=C(C)C(=O)C(CC[C@@](C)(O)C(N)=O)=C(C)C1=O` [(R)-2-hydroxy-2-methyl-4-(2,4,5-trimethyl-3,6-dioxocyclohexa-1,4-dienyl)butanamide], the concentration for a half-maximal effect (EC50) in test [1], in test [2] (setting [4]) and in test [3] was less than 100 nM in each case.

For the compound `CC1=C(C)C(=O)C(CC[C@](C)(O)C(=O)N2CCC(O)CC2)=C(C)C1=O` [(S)-2-(3-hydroxy-4-(4-hydroxypiperidin-1-yl)-3-methyl-4-oxobutyl)-3,5,6-trimethylcyclohexa-2,5-diene-1,4-dione], the EC50 in test [1] and in test [2] (setting [4]) was less than 100 nM each time.

With `CC(=O)N1CCN(C(=O)[C@@](C)(O)CCC2=C(C)C(=O)C(C)=C(C)C2=O)CC1` [(S)-2-(4-(4-acetylpiperazin-1-yl)-3-hydroxy-3-methyl-4-oxobutyl)-3,5,6-trimethylcyclohexa-2,5-diene-1,4-dione], the EC50 in test [1], in test [2] (setting [4]) and in test [3] was less than 100 nM throughout.

Consider `CC1=C(C)C(=O)C(CCC(C)(O)C(=O)NCCC(C)C)=C(C)C1=O` (centres unmarked) [Example 7, 2-Hydroxy-N-isopentyl-2-methyl-4-(2,4,5-trimethyl-3,6-dioxocyclohexa-1,4-dienyl)butanamide], for which, in test [1], the EC50 was less than 100 nM.

Turning to `CC1=C(C)C(=O)C(CCC(C)(O)C(=O)N2CCN(C)CC2)=C(C)C1=O` (centres unmarked) [Example 14, 2-(3-Hydroxy-3-methyl-4-(4-methylpiperazin-1-yl)-4-oxobutyl)-3,5,6-trimethylcyclohexa-2,5-diene-1,4-dione], the EC50 in test [2] (setting [4]) and in test [3] was less than 100 nM each time.

Turning to `CC1=C(C)C(=O)C(CCC(C)(O)C(=O)NCCCN2CCCC2=O)=C(C)C1=O` (centres unmarked) [Example 29, 2-Hydroxy-2-methyl-N-(3-(2-oxopyrrolidin-1-yl)-propyl)-4-(2,4,5-trimethyl-3,6-dioxocyclohexa-1,4-dienyl)butanamide], the EC50 in test [3] was less than 100 nM.

As for `CC1=C(C)C(=O)C(CCC(C)(O)C(=O)NCC(C)O)=C(C)C1=O` (centres unmarked) [Example 30, 2-Hydroxy-N-(2-hydroxypropyl)-2-methyl-4-(2,4,5-trimethyl-3,6-dioxocyclohexa-1,4-dienyl)butanamide], the 50% effective concentration (EC50) in test [1] and in test [2] (setting [4]) was less than 100 nM each time.

Turning to `CC1=C(C)C(=O)C(CCC(C)(O)C(=O)NCCCN2CCOCC2)=C(C)C1=O` (centres unmarked) [Example 33, 2-Hydroxy-2-methyl-N-(3-morpholinopropyl)-4-(2,4,5-trimethyl-3,6-dioxocyclohexa-1,4-dienyl)butanamide], the EC50 in test [2] (setting [4]) and in test [3] was less than 100 nM throughout.

Regarding `CC1=C(C)C(=O)C(CCC(C)(O)C(=O)N(CCO)CCO)=C(C)C1=O` (centres unmarked) [Example 35, 2-Hydroxy-N,N-bis(2-hydroxyethyl)-2-methyl-4-(2,4,5-trimethyl-3,6-dioxocyclohexa-1,4-dienyl)butanamide], the EC50 in test [2] (setting [4]) and in test [3] was less than 100 nM each time.

With `CC1=C(C)C(=O)C(CCC(C)(O)C(=O)N2CCCCC2)=C(C)C1=O` (centres unmarked) [Example 42, 2-(3-Hydroxy-3-methyl-4-oxo-4-(piperidin-1-yl)butyl)-3,5,6-trimethylcyclohexa-2,5-diene-1,4-dione], the 50% effective concentration (EC50) in test [1] is less than 100 nM.

With `COC1=C(OC)C(=O)C(CCCCCCCCCCO)=C(C)C1=O` [Idebenone, reference compound], the concentration for a half-maximal effect (EC50) in test [2] (setting [5]) was 1200 nM; in test [2] (setting [6]) it was 1500 nM; in test [2] (setting [7]), 1000 nM; in test [2] (setting [8]), 1000 nM.

Turning to `CC1=C(C)C(=O)C(CCC(C)(O)C(=O)NCCc2ccccc2F)=C(C)C1=O` (centres unmarked) [N-(2-fluorophenethyl)-2-hydroxy-2-methyl-4-(2,4,5-trimethyl-3,6-dioxocyclohexa-1,4-dienyl)butanamide], the EC50 in test [1] and in test [2] (setting [4]) was less than 100 nM throughout.

For `CC1=C(C)C(=O)C(CCC(C)(O)C(=O)NCCc2cccc(F)c2)=C(C)C1=O` (centres unmarked) [N-(3-fluorophenethyl)-2-hydroxy-2-methyl-4-(2,4,5-trimethyl-3,6-dioxocyclohexa-1,4-dienyl)butanamide], the EC50 in test [1] and in test [2] (setting [4]) was less than 100 nM in each case.

As for `Cc1c(C)c2c(c(C)c1O)CCC(C)(C(=O)O)O2` (centres unmarked) [Trolox, 6-Hydroxy-2,5,7,8-tetramethylchroman-2-carboxylic acid, reference compound], the EC50 is 8700 nM in test [2] (setting [5]), 9000 nM in test [2] (setting [6]), 9000 nM in test [2] (setting [7]) and 8000 nM in test [2] (setting [8]).

In the case of `CC(=O)Oc1c(C)c(C)c2c(c1C)CCC(C)(CCC[C@H](C)CCC[C@H](C)CCCC(C)C)O2` (stereo partly drawn) [alpha-tocopherol acetate, (+)-α-tocopherol acetate, reference compound], the EC50 in test [2] (setting [5]) was 300 nM; in test [2] (setting [6]), 400 nM; in test [2] (setting [7]), 150 nM; in test [2] (setting [8]), 350 nM.

With `CCCCCCCCCCC1=C(C)C(=O)C(OC)=C(OC)C1=O` [decylubiquinone, reference compound], the EC50 in test [2] (setting [5]) was 38 nM; in test [2] (setting [6]), 50 nM; in test [2] (setting [7]) it was 35 nM; in test [2] (setting [8]), 30 nM.

What is called EC50 is the concentration needed to bring the measured effect to its halfway point.

(Values after patent publication US11840497B2, “4-(p-quinonyl)-2-hydroxybutanamide derivatives for treatment of mitochondrial diseases” (PTC Therapeutics, Inc., priority 2007, dated 2023).)
